Patent publication US20230365602A1, “COMPOUND FOR USE IN THE TREATMENT OF PROTOZOAL DISEASES AND PROCESS FOR PRODUCTION OF SAID COMPOUND” (QUADREL S.R.L., priority 2020, published 2023)
Where two headings read alike, the source gives them in different places.

Experiments:
Human Erythrocytes = experiment: In vitro Hemolytic Activity in Human Erythrocytes; format: cell-based; conditions: for Hemolysis at 100 μM (%) / Hemolysis, HC50: human erythrocytes
Experimental: The assay, which is an indicator of the toxic insult of a compound on the erythrocyte membrane is performed essentially as described in (Calogeropoulou T. et al., J. Med. Chem. 2008, 51, 897-908). […] [table]

[1] = system: L. amazonensis intracellular amastigotes; experiment: Anti-leishmanial activity, L. amazonensis intracellular amastigotes; format: cell-based; conditions: Leishmania amazonensis
Text: (§1) The in vitro antiparasitic activity of compound 5-cyclopentadecylpentyl (2-(trimethylammonio)ethyl) phosphate (19) against L. infantum (2 species), L. amazonensis, L. donovani and L. major is presented in Table 3, as well as the toxicity against the human monocytic cell Line THP1 and PMA-differentiated THP-1 cells.

T. b. brucei GVR35 = experiment: Stage II HAT mice model, live imaging; format: in vivo
[2] = system: L. infantum intracellular amastigotes LEM235; experiment: Anti-leishmanial activity, L. infantum LEM235 intracellular amastigotes; format: cell-based; conditions: for IC50: Leishmania infantum, read-out: L. infantum intracellular amastigotes LEM235 IC50 ± SEM
Text: as §1

[3] = Cytotoxicity, Human Monocytic Cell Line THP1; format: cell-based
Text: as §1

hERG channel [4] = target: T1, hERG channel (Homo sapiens, UniProt Q12809)
T1 sequence (Q12809 whole entry): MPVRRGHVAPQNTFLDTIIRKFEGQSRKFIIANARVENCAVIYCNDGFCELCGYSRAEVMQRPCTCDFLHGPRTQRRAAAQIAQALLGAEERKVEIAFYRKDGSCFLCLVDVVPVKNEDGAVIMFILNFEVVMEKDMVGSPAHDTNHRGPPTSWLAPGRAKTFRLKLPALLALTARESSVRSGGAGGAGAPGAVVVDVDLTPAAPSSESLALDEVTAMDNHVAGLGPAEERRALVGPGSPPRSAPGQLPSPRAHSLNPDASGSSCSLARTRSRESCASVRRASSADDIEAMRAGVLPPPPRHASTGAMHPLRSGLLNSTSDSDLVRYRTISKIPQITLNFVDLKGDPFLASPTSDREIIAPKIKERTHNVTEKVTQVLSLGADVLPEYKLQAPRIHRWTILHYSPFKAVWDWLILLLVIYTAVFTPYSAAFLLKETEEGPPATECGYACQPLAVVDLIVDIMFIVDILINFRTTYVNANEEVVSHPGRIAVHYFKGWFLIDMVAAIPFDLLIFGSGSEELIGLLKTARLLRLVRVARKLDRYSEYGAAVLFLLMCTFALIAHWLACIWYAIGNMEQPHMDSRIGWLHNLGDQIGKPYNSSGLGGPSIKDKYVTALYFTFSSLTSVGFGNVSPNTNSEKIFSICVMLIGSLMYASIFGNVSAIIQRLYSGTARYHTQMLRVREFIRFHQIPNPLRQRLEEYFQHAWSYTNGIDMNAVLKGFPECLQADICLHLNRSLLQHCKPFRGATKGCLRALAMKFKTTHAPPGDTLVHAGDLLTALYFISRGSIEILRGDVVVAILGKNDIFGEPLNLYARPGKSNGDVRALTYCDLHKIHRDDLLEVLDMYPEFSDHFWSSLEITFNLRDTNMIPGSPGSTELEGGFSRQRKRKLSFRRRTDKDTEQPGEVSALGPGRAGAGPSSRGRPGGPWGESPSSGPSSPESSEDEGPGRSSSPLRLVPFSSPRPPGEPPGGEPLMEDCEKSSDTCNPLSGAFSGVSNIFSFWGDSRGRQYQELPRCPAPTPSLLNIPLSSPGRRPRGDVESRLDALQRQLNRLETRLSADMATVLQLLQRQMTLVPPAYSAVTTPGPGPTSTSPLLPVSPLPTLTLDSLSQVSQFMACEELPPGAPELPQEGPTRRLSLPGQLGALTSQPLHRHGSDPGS

CYP1A2 = target: T2, CYP1A2 (Homo sapiens, UniProt P05177); experiment: Early toxicity: CYP1A2 inhibition; format: in vitro ADME; conditions: human, mean ± SD, Table 4a
T2 sequence (P05177 1-516): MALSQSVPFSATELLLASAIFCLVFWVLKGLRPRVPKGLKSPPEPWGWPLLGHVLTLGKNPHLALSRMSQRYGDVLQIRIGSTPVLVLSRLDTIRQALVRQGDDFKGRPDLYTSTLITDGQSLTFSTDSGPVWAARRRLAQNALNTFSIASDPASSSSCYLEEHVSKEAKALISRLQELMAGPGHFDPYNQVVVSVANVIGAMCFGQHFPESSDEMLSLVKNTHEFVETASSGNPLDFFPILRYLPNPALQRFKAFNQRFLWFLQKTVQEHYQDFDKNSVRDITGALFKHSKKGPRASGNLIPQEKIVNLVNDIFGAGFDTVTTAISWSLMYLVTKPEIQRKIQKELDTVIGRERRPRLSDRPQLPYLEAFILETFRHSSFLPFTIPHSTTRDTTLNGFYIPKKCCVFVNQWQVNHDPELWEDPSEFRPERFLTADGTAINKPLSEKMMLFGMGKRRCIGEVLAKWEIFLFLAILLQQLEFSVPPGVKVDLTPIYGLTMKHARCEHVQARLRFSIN

Leishmania infantum [5] = experiment: Efficacy in mice infected with Leishmania infantum, 21-day treatment, limiting dilution assay; format: in vivo, BALB/c mice
Experimental: The rationale for the choice of four doses was to enable dose dependent information in activity and toxicity. The wait period of 15 days after treatment end enabled the follow up of reappearance of infection and also the determination of the time dependent compound elimination. […] Three days after the last treatment the mice were euthanized and parasite burden (log number of parasites/mg of organ) was evaluated by limiting dilution assay, essentially as described in Tavares. J. et al (Methods Mol Biol, 2019; 1971:289-301), in the spleen (FIG. 2B) and in the liver (FIG. 2C). Data represent the mean±SD, *p<0.05, **p<0.01 (One way ANOVA with Dunnett's test) in comparison with the untreated group.

Leishmania infantum [6] = experiment: Efficacy in mice infected with Leishmania infantum, 10-day treatment; format: in vivo, BALB/c mice; conditions: 10 consecutive days; for parasite burden in the spleen: 20 mg/kg and 10 mg/kg
Experimental: (A) Experimental approach; (B) and (C) are graphic presentations of parasite burden in the spleen and the liver, respectively, evaluated by limiting dilution assay.
The treatments were reduced to 10 consecutive days at doses of 2.5, 5, 10 or 20 mg/Kg/day (FIG. 3).

A549 = experiment: Early toxicity: A549 cell growth; format: cell-based; conditions: for Avg % Cell growth A549: Table 5
[7] = system: T. b. brucei L427 WT Blood-Stream Form; experiment: Anti-parasitic activity against T. b. brucei blood-stream form (resazurin 72 h assay); format: cell-based; conditions: for IC50: 72 h, read-out: Dose Response Curves IC50 ± SD (μM)
HDAC4 = HDAC4 (Homo sapiens, UniProt P56524); experiment: HDAC4 activity inhibition; format: biochemical
HDAC4, sequence (P56524 whole entry, species assumed): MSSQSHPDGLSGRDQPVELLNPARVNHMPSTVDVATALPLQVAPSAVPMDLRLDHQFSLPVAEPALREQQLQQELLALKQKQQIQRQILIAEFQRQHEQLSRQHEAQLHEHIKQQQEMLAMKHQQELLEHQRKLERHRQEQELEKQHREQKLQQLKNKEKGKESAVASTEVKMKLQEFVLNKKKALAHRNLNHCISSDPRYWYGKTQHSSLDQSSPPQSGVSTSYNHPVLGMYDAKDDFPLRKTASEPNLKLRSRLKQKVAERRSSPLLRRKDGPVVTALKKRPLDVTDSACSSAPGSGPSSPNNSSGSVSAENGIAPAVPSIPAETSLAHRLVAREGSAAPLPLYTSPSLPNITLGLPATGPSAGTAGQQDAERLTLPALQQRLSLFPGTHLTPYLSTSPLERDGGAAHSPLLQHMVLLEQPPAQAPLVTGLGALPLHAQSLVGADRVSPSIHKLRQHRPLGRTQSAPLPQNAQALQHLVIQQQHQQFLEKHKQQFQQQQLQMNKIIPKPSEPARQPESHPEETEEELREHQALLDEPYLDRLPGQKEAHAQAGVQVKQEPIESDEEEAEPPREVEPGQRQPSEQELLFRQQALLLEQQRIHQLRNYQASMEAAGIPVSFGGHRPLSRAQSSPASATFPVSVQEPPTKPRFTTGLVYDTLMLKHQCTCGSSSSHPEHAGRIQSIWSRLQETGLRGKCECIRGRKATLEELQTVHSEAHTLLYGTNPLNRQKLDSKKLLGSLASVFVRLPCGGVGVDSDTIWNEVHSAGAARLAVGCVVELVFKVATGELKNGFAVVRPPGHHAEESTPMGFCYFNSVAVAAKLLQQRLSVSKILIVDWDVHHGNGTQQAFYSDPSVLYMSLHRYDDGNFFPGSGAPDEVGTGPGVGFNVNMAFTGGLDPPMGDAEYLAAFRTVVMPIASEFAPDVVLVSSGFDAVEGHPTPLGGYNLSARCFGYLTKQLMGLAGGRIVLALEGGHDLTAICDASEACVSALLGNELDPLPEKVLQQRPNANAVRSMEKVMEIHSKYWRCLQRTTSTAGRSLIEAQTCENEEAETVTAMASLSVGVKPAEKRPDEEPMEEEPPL

hERG channel [8] = target: T1, hERG channel; experiment: in vitro
[9] = system: L. infantum (MHOM/MA/67/ITMAP-263) intracellular amastigotes; experiment: Anti-parasitic activity against L. infantum intracellular amastigotes (infection with axenic amastigotes luciferase positive); format: cell-based
[10] = Human microsomal stability; format: in vitro ADME
Experimental: Furthermore, compound 19 is stable in human hepatic microsomes (samples were taken at 0, 5, 15, 30, 45 minutes) (Table 8), while the human plasma stability is 99.7% (samples were taken at 0, 15, 30, 45, 60, 120 minutes).

[11] = system: Salmonella TA100 (base pair substitutions); experiment: Ames mutagenicity testing, TA100; format: cell-based
Experimental: The test has been performed in duplicate as separate experiments (Table 9). Two different Salmonella strains were tested; TA98 (frameshift mutations) and TA100 (base pair substitutions, primarily at one of the GC pairs). Values above 15 represent genotoxicity.

Structure (SMILES): CCCCCCCCCCCCCCCCOP(=O)([O-])OCC[N+](C)(C)C [Miltefosine, hexadecylphosphocholine, reference compound]
- Hemolysis at 100 μM (%) (Human Erythrocytes; 100 μM): 96.1%
- Hemolysis, HC50 (Human Erythrocytes): 38.3 ± 2.8 µM
- IC50 [1]: 14.2 µM
- infection outcome (words) (T. b. brucei GVR35; miltefosine treated animals, sacrificed after 7 treatments): no reduction in infection
- weight loss associated to the treatment (T. b. brucei GVR35; miltefosine treated infected animals): constant weight loss
- IC50 [2]: 6.7 ± 1 µM
- CC50 [3]: 28.6 ± 2.48 µM
- Flag for Interference, hERG (hERG channel [4]): (no)
- inhibition at 10 µM (CYP1A2): -20.6 ± 11.8%
- parasite burden reduction, liver (Leishmania infantum [5]; miltefosine 2.5 mg/kg, 21 consecutive days): 98%
- parasite burden in the spleen (Leishmania infantum [5]; miltefosine 10 mg/kg, oral gavage, 21 consecutive days): one of the animals presented detected parasites in the spleen
- parasite burden (Leishmania infantum [5]; miltefosine 20 mg/kg, oral gavage, 21 consecutive days): maintained parasite burden under the detection limit
- parasite burden in the liver (Leishmania infantum [5]; miltefosine 20, 10, 5 mg/kg, 21 consecutive days): parasite burdens under the detection limit
- parasite burden reduction, spleen (Leishmania infantum [5]; miltefosine lower doses (5 and 2.5 mg/kg), 21 consecutive days): more than 99%
- reduction of parasite burden, spleen (Leishmania infantum [6]; 2.5 mg/kg): 64±33%
- reduction of parasite burden, spleen (Leishmania infantum [6]; 5 mg/kg): 70±36%
- parasite burden in the spleen (Leishmania infantum [6]): not able to maintain parasite burden under the detection limit
- average reduction of parasite load, spleen (Leishmania infantum [6]; 20 and 10 mg/kg): > 99%
- reduction of average parasite burden, liver (Leishmania infantum [6]; all tested concentrations): more than 98%
- Avg % Cell growth A549 (A549; 10 μM): 95.80 ± 15.78 (10 μM) %
- % cell growth A549 (A549; at 1 μM): 95.8 ± 15.78%
- IC50 ([7]; Trypanosoma brucei): 33.9 ± 0.5 µM
- inhibition of the activity of HDAC4 (HDAC4; 10 μM): did not inhibit
- inhibition at 10 µM (hERG channel [8]): -16.9 ± 7.34%
- IC50 ([9]; Leishmania infantum, read-out: Dose Response Curves IC50 ± SD (μM)): 2.51 ± 1.73 µM
- IC50 ([9]; Leishmania infantum, read-out: L. infantum intracellular amastigotes (MHOM/MA/67/ITMAP-263) IC50 ± SEM (μM)): 3.2 ± 1.4 µM

Structure (SMILES): C[N+](C)(C)CCOP(=O)([O-])OCCCCCC1CCCCCCCCCCCCCC1 [Compound 19, 5-cyclopentadecylpentyl (2-(trimethylammonio)ethyl) phosphate]
- percentage of hemolytic activity lower than miltefosine (Human Erythrocytes; 100 μM): approximately 11 fold
- Hemolysis at 100 μM (%) (Human Erythrocytes; 100 μM): 8.7%
- Hemolysis, HC50 (Human Erythrocytes): >100 µM
- IC50 [1]: 5.4 µM
- average reduction of signal (average radiance) in the brain region (T. b. brucei GVR35; 50 mg/kg daily for 13 days, compared to beginning of treatment (day 21)): 99.96%
- reduction of infection (T. b. brucei GVR35; 50 mg/kg/day PO, 13 days): > 99%
- signal in the region of the brain lost (T. b. brucei GVR35; after 4 treatments (day 25), 50 mg/kg daily): 99.95%
- overall and brain infection (T. b. brucei GVR35; compound 19 50 mg/kg/day PO): able to significantly reduce the overall infection and also in the brain
- IC50 [2]: 0.7 ± 0.4 µM
- Selectivity Index CC50/IC50 ([2]; THP1 CC50 / IC50 L. infantum LEM235): 714
- CC50 ([3]; human monocytic cell line THP1, read-out: Cytotoxicity-Human Monocytic Cell Line THP1 CC50 ± SD): > 500 µM
- Degradation non NADPH dependent (%) ([10]; human microsomes): 0%
- Human microsomal Metabolic stability (%) ([10]; samples at 0, 5, 15, 30, 45 minutes): 100%
- inhibition at 10 µM (CYP1A2): -32.1 ± 9.3%
- Ames mutagenicity TA100 (values above 15 represent genotoxicity) ([11]; 3.125 μM): 7.5 ± 0.71
- Ames mutagenicity TA100 (values above 15 represent genotoxicity) ([11]; 6.25 μM): 9.0 ± 0
- Ames mutagenicity TA100 (values above 15 represent genotoxicity) ([11]; 12.5 μM): 14.0 ± 1.41
- Ames mutagenicity TA100 (values above 15 represent genotoxicity) ([11]; 25 μM): 7.0 ± 2.83
- Ames mutagenicity TA100 (values above 15 represent genotoxicity) ([11]; 50 μM): 10.0 ± 0
- Ames mutagenicity TA100 (values above 15 represent genotoxicity) ([11]; 100 μM): 8.5 ± 4.95
- mutagenicity, TA100 ([11]; up to 100 μM): does not exhibit mutagenicity
- average reduction of parasite burden, spleen (Leishmania infantum [5]; compound 19 2.5 mg/kg every other day for 21 days): 98%
- parasite burden, spleen and liver (Leishmania infantum [5]; compound 19 every other day for 21 days, 20, 10, 5, 2.5 mg/kg, except 2.5 mg/kg in the spleen): maintained parasite burden under the detection limit
- reduction of parasite burden, spleen (Leishmania infantum [6]; 2.5 mg/kg): 91±6%
- reduction of parasite burden, spleen (Leishmania infantum [6]; 5 mg/kg): 99±1%
- parasite burden in the spleen (Leishmania infantum [6]): able to maintain parasite burden below the detection limit
- parasite load in the liver (Leishmania infantum [6]; all treatments (20, 10, 5, 2.5 mg/kg)): maintained the parasite load under the detection limit
- % cell growth A549 (A549; 10 μM, 100% = not cytotoxic, 0% = cytostatic, −100% = cytotoxic): 108.28 ± 0.09%
- Avg % Cell growth A549 (A549; 10 μM): 108.28 ± 0.09 (10 μM) %
- activity against T. b. brucei blood-stream form ([7]; Table 2): unexpectedly high activity in the low micromolar range
- IC50 ([7]; Trypanosoma brucei): 4.47 ± 0.2 µM
- inhibition at 10 µM ([7]; Trypanosoma brucei, read-out: Single Dose Assay 10 μM Mean Inhibitory Activity (%) ± SD): 99 ± 1%
- Selectivity Index CC50/IC50 or NOAEL/IC50 ([7]; toxicity / T. b. brucei IC50, Table 2): >22
- inhibition of the activity of HDAC4 (HDAC4; 100 μM): does not inhibit
- inhibition at 10 µM ([9]; Leishmania infantum, 10 μM, Table 1, read-out: Single Dose Assay 10 μM Mean Inhibitory Activity (%) ± SD): 78 ± 2%
- IC50 ([9]; Leishmania infantum, Table 1, read-out: Dose Response Curves IC50 ± SD): 1.4 ± 0.1 µM
- IC50 ([9]; Leishmania infantum, Table 3, read-out: L. infantum intracellular amastigotes (MHOM/MA/67/ITMAP-263) IC50 ± SEM): 1.4 ± 0.1 µM
- Selectivity Index CC50/IC50 or NOAEL/IC50 ([9]; PMA-differentiated THP-1 CC50 / IC50 L. infantum MHOM/MA/67/ITMAP-263, Table 3): >71
- Selectivity Index CC50/IC50 or NOAEL/IC50 ([9]; THP-1 toxicity / L. infantum IC50, Table 1): >71
